17 compounds from patent US20080021030A1, “Substituted Pyrazoles As Ppar Agonists” (priority 2003, published 2008) can be followed below.

Holding throughout (experiment): Transient transfection (transactivation) assay in CV-1 cells, GAL4-PPAR LBD chimera, SPAP reporter
Assay type in all cases: cell-based

The target of one assay is T1, hPPAR gamma (Homo sapiens, UniProt P37231).
T1 construct: expressed in transfected cells; host or cells: CV-1 cells
T1 sequence (P37231 238-503 limits assumed): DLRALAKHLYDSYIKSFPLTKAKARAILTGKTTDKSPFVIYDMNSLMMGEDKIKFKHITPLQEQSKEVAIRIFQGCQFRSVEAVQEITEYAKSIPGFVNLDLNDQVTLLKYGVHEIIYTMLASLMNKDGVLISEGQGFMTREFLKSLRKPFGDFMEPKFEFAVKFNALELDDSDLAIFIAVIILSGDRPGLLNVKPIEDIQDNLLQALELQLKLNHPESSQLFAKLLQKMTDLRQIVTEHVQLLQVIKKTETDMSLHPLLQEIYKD
The conditions noted are these: read-out: EC50 μM HPPARγ. The source says:
Compounds were screened for functional potency in transient transfection assays in CV-1 cells for their ability to activate the PPAR subtypes (transactivation assay). A previously established chimeric receptor system was utilized to allow comparison of the relative transcriptional activity of the receptor subtypes on the same target gene and to prevent endogenous receptor activation from complicating the interpretation of results. […] The ligand binding domains for murine and human PPAR alpha, PPAR gamma, and PPAR delta were each fused to the yeast transcription factor GAL4 DNA binding domain. CV-1 cells were transiently transfected with expression vectors for the respective PPAR chimera along with a reporter construct containing five copies of the GAL4 DNA binding site driving expression of secreted placental alkaline phosphatase (SPAP) and beta-galactosidase. After 16 h, the medium was exchanged to DME medium supplemented with 10% delipidated fetal calf serum and the test compound at the appropriate concentration. After an additional 24 h, cell extracts were prepared and assayed for alkaline phosphatase and β-galactosidase activity.

The target in a further assay is T2, hPPAR alpha (Homo sapiens, UniProt Q07869).
T2 construct: expressed in transfected cells; host or cells: CV-1 cells
T2 sequence (Q07869 239-466 limits assumed): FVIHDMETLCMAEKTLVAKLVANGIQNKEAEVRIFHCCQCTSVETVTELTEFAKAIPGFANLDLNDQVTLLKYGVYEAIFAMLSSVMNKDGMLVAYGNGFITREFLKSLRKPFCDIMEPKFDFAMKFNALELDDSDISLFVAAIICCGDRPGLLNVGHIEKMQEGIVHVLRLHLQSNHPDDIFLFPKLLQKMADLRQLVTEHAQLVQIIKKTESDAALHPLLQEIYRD
The conditions noted are these: read-out: EC50 μM HPPARα. The source says: (§1) Compounds were screened for functional potency in transient transfection assays in CV-1 cells for their ability to activate the PPAR subtypes (transactivation assay). A previously established chimeric receptor system was utilized to allow comparison of the relative transcriptional activity of the receptor subtypes on the same target gene and to prevent endogenous receptor activation from complicating the interpretation of results. See, for example, Lehmann, J. M.; Moore, L. B.; Smith-Oliver, T. A.; Wilkison, W. O.; Willson, T. M.; Kliewer, S. A., An antidiabetic thiazolidinedione is a high affinity ligand for peroxisome proliferator-activated receptor gamma (PPARgamma), J. Biol. Chem., 270, 12953-6 (1995). The ligand binding domains for murine and human PPAR alpha, PPAR gamma, and PPAR delta were each fused to the yeast transcription factor GAL4 DNA binding domain. CV-1 cells were transiently transfected with expression vectors for the respective PPAR chimera along with a reporter construct containing five copies of the GAL4 DNA binding site driving expression of secreted placental alkaline phosphatase (SPAP) and beta-galactosidase. After 16 h, the medium was exchanged to DME medium supplemented with 10% delipidated fetal calf serum and the test compound at the appropriate concentration. After an additional 24 h, cell extracts were prepared and assayed for alkaline phosphatase and β-galactosidase activity. Alkaline phosphatase activity was corrected for transfection efficiency using the beta-galactosidase activity as an internal standard (see, for example, Kliewer, S. A., et. al. Cell 83, 813-819 (1995)). Rosiglitazone (BRL 49653) was used as a positive control in the hPPAR gamma assay. The positive control in the hPPAR alpha assays was 2-4-[2-(3-[4-fluorophenyl]-1-heptylureido)ethyl]-phenoxy-(2-methyl propionic acid (WO 97/36579). The positive control for PPAR delta assays was 2-{2-methyl-4-[({4-methyl-2-{trifluoromethyl)phenyl]-1,3-thiazol-5-yl}methyl)sulfanyl]phenoxy}acetic acid (WO 01/00603). The positive control was (5-{4-[2-(Methyl-pyridin-2-yl-amino)-ethoxy]-benzyl}-thiazolidine-2,4-dione (J. Med. Chem. 1994, 37(23), 3977), for PPAR gamma.
(§2) Activities in three hPPAR subtypes are reported in the table and are expressed in micromolar.

A further assay has as its target T3, hPPAR delta (Homo sapiens, UniProt Q03181).
T3 construct: expressed in transfected cells; host or cells: CV-1 cells
T3 sequence (Q03181 211-439 limits assumed): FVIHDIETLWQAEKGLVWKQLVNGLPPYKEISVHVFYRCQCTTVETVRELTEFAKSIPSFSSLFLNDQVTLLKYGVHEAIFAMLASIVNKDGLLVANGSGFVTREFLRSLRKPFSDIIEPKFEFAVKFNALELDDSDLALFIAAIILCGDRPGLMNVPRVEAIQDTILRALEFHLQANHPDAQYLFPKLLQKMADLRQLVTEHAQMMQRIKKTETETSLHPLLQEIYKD
To be noted: read-out: EC50 μM HPPARδ.
From the text: as §1, §2

`C=CCn1nc(-c2ccc(C(C)(C)C)cc2)cc1C(=O)NCc1ccc(OC(C)(C)C(=O)O)cc1` [Example 60, 2-({4-[({[3-[4-(1,1-dimethylethyl)phenyl]-1-(2-propen-1-yl)-1H-pyrazol-5-yl]carbonyl}amino)methyl]phenyl}oxy)-2-methylpropanoic acid]: the EC50 – broadly, the concentration giving half of the maximal effect – at hPPAR gamma amounted to 1.38 µM; at hPPAR alpha, 0.192 µM; at hPPAR delta, 5.93 µM.
On to `Cc1cc(CNC(=O)c2cc(-c3cccc(N4CCCC4)c3)n(C)n2)ccc1OC(C)(C)C(=O)O` [Example 41, 2-methyl-2-[(2-methyl-4-{[({1-methyl-5-[3-(1-pyrrolidinyl)phenyl]-1H-pyrazol-3-yl}carbonyl)amino]methyl}phenyl)oxy]propanoic acid], for which the figures for the EC50 on hPPAR gamma, on hPPAR alpha and on hPPAR delta were 0.151 µM, 0.504 µM and greater than 25 µM, respectively.
In the case of `Cc1cc(CNC(=O)c2cc(-c3ccc(CC(C)C)cc3)n(C)n2)ccc1OC(C)(C)C(=O)O` [Example 7, 2-methyl-2-[(2-methyl-4-{[({1-methyl-5-[4-(2-methylpropyl)phenyl]-1H-pyrazol-3-yl}carbonyl)amino]methyl}phenyl)oxy]propanoic acid], the EC50 turned out to be 0.008 µM at hPPAR gamma, 0.002 µM on hPPAR alpha and 2.06 µM at hPPAR delta.
As for `CCCc1cc(CNC(=O)c2cc(-c3ccc(C(C)(C)C)cc3)nn2C)ccc1OC(C)(C)C(=O)O` [Example 4, 2-[(4-{[{(3-[4-(1,1-dimethylethyl)phenyl]-1-methyl-1H-pyrazol-5-yl}carbonyl)amino]methyl}-2-propylphenyl)oxy]-2-methylpropanoic acid], the half-maximal effective concentration (EC50) on hPPAR gamma stood at 0.072 µM; at hPPAR alpha it was 0.066 µM; at hPPAR delta, 1.09 µM.
For `Cc1cc(CNC(=O)c2cc(-c3ccc(C(C)(C)C)cc3)nn2CCN2CCOCC2)ccc1OC(C)(C)C(=O)O` [Example 55, 2-[(4-{[({3-[4-(1,1-dimethylethyl)phenyl]-1-[2-(4-morpholinyl)ethyl]-1H-pyrazol-5-yl}carbonyl)amino]methyl}-2-methylphenyl)oxy]-2-methyl propanoic acid], the EC50 is 0.748 µM on hPPAR gamma, 0.444 µM at hPPAR alpha and greater than 25 µM on hPPAR delta.
Take `Cc1cc(CNC(=O)c2cc(-c3ccc(C(C)(C)C)cc3)n(C)n2)cc(C)c1OC(C)(C)C(=O)O` [Example 25, 2-{4-[({[5-(4-tert-butylphenyl)-1-methyl-1H-pyrazol-3-yl]carbonyl}amino)methyl]-2,6-dimethylphenoxy}-2-methylpropanoic acid]: the EC50 at hPPAR gamma was 0.008 µM; at hPPAR alpha, 0.002 µM; at hPPAR delta, greater than 25 µM.
As for `Cc1cc(CNC(=O)c2cc(-c3cccc(N4CCCC4)c3)nn2C)ccc1OC(C)(C)C(=O)O` [Example 23, 2-methyl-2-[(2-methyl-4-{[({1-methyl-3-[3-(1-pyrrolidinyl)phenyl]-1H-pyrazol 5-yl}carbonyl)amino]methyl}phenyl)oxy]propanoic acid], the EC50 turned out to be 0.779 µM at hPPAR gamma, 0.067 µM on hPPAR alpha and 4.33 µM on hPPAR delta.
The corresponding values for `Cc1cc(CNC(=O)c2cc(-c3ccc(CC(C)C)cc3)nn2C)ccc1OC(C)(C)C(=O)O` [Example 8, 2-methyl-2-[(2-methyl-4-{[({1-methyl-3-[4-(2-methylpropyl)phenyl]-1H-pyrazol-5-yl}carbonyl)amino]methyl}phenyl)oxy]propanoic acid] are 0.059 µM, 0.051 µM and 1.07 µM.
With `Cc1cc(CNC(=O)c2cc(-c3ccc(C(C)C)cc3)n(C)n2)ccc1OC(C)(C)C(=O)O` [Example 18], the values for the EC50 at hPPAR gamma, at hPPAR alpha and on hPPAR delta were 0.009 µM, 0.004 µM and 4.02 µM, respectively.
On to `Cc1ccc(CNC(=O)c2cc(-c3ccc(C(C)(C)C)cc3)nn2CCc2ccccc2)cc1OC(C)(C)C(=O)O` [Example 51, 2-({5-[({[3-[4-(1,1-dimethylethyl)phenyl]-1-(2-phenylethyl)-1H-pyrazol-5-yl]carbonyl}amino)methyl]-2-methylphenyl}oxy)-2-methylpropanoic acid], for which the EC50 at hPPAR gamma is 0.14 µM; on hPPAR alpha it was 0.3 µM; at hPPAR delta it was greater than 25 µM.
Regarding `Cc1cc(CNC(=O)c2cc(-c3ccc(C(C)C)cc3)nn2C)ccc1OC(C)(C)C(=O)O` [Example 2], the values for the EC50 at hPPAR gamma, at hPPAR alpha and at hPPAR delta were 0.044 µM, 0.018 µM and 0.82 µM, respectively.
Consider `COc1cc(CNC(=O)c2cc(-c3ccc(C(C)C)cc3)nn2C)ccc1OC(C)(C)C(=O)O` [Example 10], for which the EC50 on hPPAR gamma was 0.554 µM; on hPPAR alpha, 2.9 µM; on hPPAR delta, greater than 10 µM.
With `Cc1cc(CNC(=O)c2cc(-c3ccc(N4CCCCC4)cc3)n(C)n2)ccc1OC(C)(C)C(=O)O` [Example 21], the EC50 on hPPAR gamma came to 0.005 µM; at hPPAR alpha, 0.01 µM; at hPPAR delta, 1.12 µM.
As for `C=CCn1nc(C(=O)NCc2ccc(OC(C)(C)C(=O)O)c(C)c2)cc1-c1ccc(C(C)(C)C)cc1` [Example 62, 2-({4-[({[5-[4-(1,1-dimethylethyl)phenyl]-1-(2-propen-1-yl)-1H-pyrazol-3-yl]carbonyl}amino)methyl]-2-methylphenyl}oxy)-2-methylpropanoic acid], the EC50 is 0.069 µM at hPPAR gamma, 0.032 µM on hPPAR alpha and greater than 25 µM at hPPAR delta.
Consider `Cc1cc(CNC(=O)c2cc(-c3ccc(C(C)(C)C)cc3)n(Cc3ccccc3)n2)ccc1OC(C)(C)C(=O)O` [Example 50, 2-({4-[({[5-[4-(1,1-dimethylethyl)phenyl]-1-(phenylmethyl)-1H-pyrazol-3-yl]carbonyl}amino)methyl]-2-methylphenyl}oxy)-2-methylpropanoic acid], for which the results for the EC50 at hPPAR gamma, on hPPAR alpha and at hPPAR delta were 1.7 µM, 0.204 µM and greater than 25 µM, respectively.
As to `C=CCn1nc(-c2ccc(C(C)(C)C)cc2)cc1C(=O)NCc1ccc(OC(C)(C)C(=O)O)c(C)c1` [Example 47, 2-({4-[({[3-[4-(1,1-dimethylethyl)phenyl]-1-(2-propen-1-yl)-1H-pyrazol-5-yl]carbonyl}amino)methyl]-2-methylphenyl}oxy)-2-methylpropanoic acid], the values for the EC50 at hPPAR gamma, at hPPAR alpha and on hPPAR delta were 0.059 µM, 0.044 µM and 1.15 µM, respectively.
As to `Cc1cc(CNC(=O)c2cc(-c3ccc(-c4ccccc4C)cc3)n(C)n2)ccc1OC(C)(C)C(=O)O` [Example 31, 2-methyl-2-(2-methyl-4-[({[1-methyl-5-(2′-methylbiphenyl-4-yl)-1H-pyrazol-3-yl]carbonyl}amino)methyl]phenoxy}propanoic acid], the EC50 is 0.026 µM at hPPAR gamma, 0.093 µM on hPPAR alpha and greater than 25 µM on hPPAR delta.
